Assay results reported in patent US20030004172A1, “Fused pyrimidinone matrix metalloproteinase inhibitors” (priority 2001, published 2003).

Molecular target: MMP-13CD (catalytic domain of collagenase-3) (Homo sapiens, UniProt P45452)
Test: Thiopeptolide substrate hydrolysis inhibition assay, MMP-13CD
Assay type: biochemical
Details: Table I; thiopeptolide substrate, HEPES pH 7.0, 22° C.; read-out: MMP-13CD IC50
From the text: Thiopeptolide substrates show virtually no decomposition or hydrolysis at or below neutral pH in the absence of a matrix metalloproteinase enzyme.

Compared with Cn1c(=O)n(Cc2ccccc2CS(=O)(=O)c2ccccc2)c(=O)c2cc(C(=O)OCc3ccccc3)sc21 [Example 137, 3-(2-Benzenesulfonylmethyl-benzyl)-1-methyl-2,4-dioxo-1,2,3,4tetrahydro-thieno[2,3-d]pyrimidine-6-carboxylic acid benzyl ester], Cn1c(=O)n(Cc2cccc3ccccc23)c(=O)c2cc(C(=O)OCc3ccccc3)sc21 [Example 138, 1-Methyl-3-naphthalen-1-ylmethyl-2,4-dioxo-1,2,3,4-tetrahydro-thieno[2,3-d]pyrimidine-6-carboxylic acid benzyl ester] is 13-fold lower in IC50: 8.3 µM for the first, 0.66 µM for the second. The second is the more potent here.

Compared with Cn1c(=O)n(Cc2ccccc2C(F)(F)F)c(=O)c2cc(C(=O)OCc3ccccc3)sc21 [Example 139, 1-Methyl-2,4-dioxo-3-(2-trifluoromethyl-benzyl)-1,2,3,4-tetrahydro-thieno[2,3-d]pyrimidine-6-carboxylic acid benzyl ester], Cn1c(=O)n(Cc2ccccc2)c(=O)c2cc(C(=O)OCc3ccccc3C(F)(F)F)sc21 [Example 169, 3-Benzyl-1-methyl-2,4-dioxo-1,2,3,4-tetrahydro-thieno[2,3-d]pyrimidine-6-carboxylic acid 2-trifluoromethyl-benzyl ester] is 120-fold higher in IC50: 0.25 µM for the first, 30 µM for the second.

Compared with Cn1c(=O)n(Cc2cccc(Cl)c2)c(=O)c2cc(C(=O)OCc3ccccc3)sc21 [Example 140], Cn1c(=O)n(Cc2ccccc2)c(=O)c2cc(C(=O)OCc3ccc(F)cc3)sc21 [Example 153, 3-Benzyl-1-methyl-2,4-dioxo-1,2,3,4-tetrahydro-thieno[2,3-d]pyrimidine-6-carboxylic acid 4-fluoro-benzyl ester] is 4.2-fold lower in IC50: 0.017 µM for the first, 0.004 µM for the second. The second is the more potent here.

Going from CCn1c(=O)c2cc(C(=O)OCc3ccccc3)sc2n(C)c1=O [Example 142, 3-Ethyl-1-methyl-2,4-dioxo-1,2,3,4-tetrahydro-thieno[2,3-d]pyrimidine-6-carboxylic acid benzyl ester] to CC(=O)OCCn1c(=O)c2cc(C(=O)OCc3ccccc3)sc2n(C)c1=O [Example 145, 3-(2-Acetoxy-ethyl)-1-methyl-2,4-dioxo-1,2,3,4-tetrahydro-thieno[2,3-d]pyrimidine-6-carboxylic acid benzyl ester], the IC50 rises from 0.39 µM to 1.3 µM (3.3-fold). The first is the more potent here.

First: Cn1c(=O)n(CCCc2ccccc2)c(=O)c2cc(C(=O)OCc3ccccc3)sc21 [Example 143, 1-Methyl-2,4-dioxo-3-(3-phenyl-propyl)-1,2,3,4-tetrahydro-thieno[2,3-d]pyrimidine-6-carboxylic acid benzyl ester]
Second: Cn1c(=O)n(Cc2ccccc2)c(=O)c2cc(C(=O)OCCc3ccccc3)sc21 [Example 172, 3-Benzyl-1-methyl-2,4-dioxo-1,2,3,4-tetrahydro-thieno[2,3-d]pyrimidine-6-carboxylic acid phenethyl ester]
The IC50 of the first is 110-fold lower: 0.28 µM for the first, 32 µM for the second.

Going from Cn1c(=O)n(CCS(=O)(=O)c2ccc(Cl)cc2)c(=O)c2cc(C(=O)OCc3ccccc3)sc21 [Example 144, 3-[2-(4-Chloro-benzenesulfonyl)-ethyl]-1-methyl-2,4-dioxo-1,2,3,4-tetrahydro-thieno[2,3-d]pyrimidine-6-carboxylic acid benzyl ester] to CC(C)c1ccc(COC(=O)c2cc3c(=O)n(Cc4ccccc4)c(=O)n(C)c3s2)cc1 [Example 154, 3-Benzyl-1-methyl-2,4-dioxo-1,2,3,4-tetrahydro-thieno[2,3-d]pyrimidine-6-carboxylic acid 4-isopropyl-benzyl ester], the IC50 rises from 0.003 µM to 32 µM (11000-fold). The first is the more potent here.

First: Cn1c(=O)n(Cc2ccccc2)c(=O)c2cc(C(=O)OCCOc3ccccc3)sc21 [Example 146, 3-Benzyl-1-methyl-2,4-dioxo-1,2,3,4-tetrahydro-thieno[2,3-d]pyrimidine-6-carboxylic acid 2-phenoxyethyl ester]
Second: Cn1c(=O)n(Cc2ccccc2)c(=O)c2cc(C(=O)OCCOCc3ccccc3)sc21 [Example 170, 3-Benzyl-1-methyl-2,4-dioxo-1,2,3,4-tetrahydro-thieno[2,3-d]pyrimidine-6-carboxylic acid 2-benzyloxy-ethyl ester]
The IC50 of the first is 65-fold higher: 47 µM for the first, 0.72 µM for the second. The second is the more potent here.

Going from Cn1c(=O)n(Cc2ccccc2)c(=O)c2cc(C(=O)NCc3ccccc3)sc21 [Example 148, 3-Benzyl-1-methyl-2,4-dioxo-1,2,3,4-tetrahydro-thieno[2,3-d]pyrimidine-6-carboxylic acid benzyl amide] to Cn1c(=O)n(Cc2ccccc2)c(=O)c2cc(C(=O)OCCc3ccccc3O)sc21 [Example 159, 3-Benzyl-1-methyl-2,4-dioxo-1,2,3,4-tetrahydro-thieno[2,3-d]pyrimidine-6-carboxylic acid 2-(2-hydroxy-phenyl)-ethyl ester], the IC50 rises from 0.54 µM to 30 µM (56-fold).

Cn1c(=O)n(Cc2ccccc2)c(=O)c2cc(C(=O)OCc3c(Cl)cccc3Cl)sc21 [Example 149, 3-Benzyl-1-methyl-2,4-dioxo-1,2,3,4-tetrahydro-thieno[2,3-d]pyrimidine-6-carboxylic acid 2,6-dichloro-benzyl ester] and Cn1c(=O)n(Cc2ccccc2)c(=O)c2cc(C(=O)OCc3c(F)cccc3F)sc21 [Example 158, 3-Benzyl-1-methyl-2,4-dioxo-1,2,3,4-tetrahydro-thieno[2,3-d]pyrimidine-6-carboxylic acid 2,6-difluoro-benzyl ester] are within 1.5-fold of each other in IC50: 15 µM for the first, 16 µM for the second.

Going from CCCCOC(=O)c1cc2c(=O)n(Cc3ccccc3)c(=O)n(C)c2s1 [Example 150, 3-Benzyl-1-methyl-2,4-dioxo-1,2,3,4-tetrahydro-thieno[2,3-d]pyrimidine-6-carboxylic acid butyl ester] to CCC1(COC(=O)c2cc3c(=O)n(Cc4ccccc4)c(=O)n(C)c3s2)COC1 [Example 173, 3-Benzyl-1-methyl-2,4-dioxo-1,2,3,4-tetrahydro-thieno[2,3-d]pyrimidine-6-carboxylic acid 3-ethyl-oxetan-3-ylmethyl ester], the IC50 rises from 13 µM to over 100 µM. The first is the more potent here.

Going from Cn1c(=O)n(Cc2ccccc2)c(=O)c2cc(C(=O)OCC3COc4ccccc4O3)sc21 (stereo not shown) [Example 151, 3-Benzyl-1-methyl-2,4-dioxo-1,2,3,4-tetrahydro-thieno[2,3-d]pyrimidine-6-carboxylic acid 2,3-dihydro-1,4-benzodioxin-2-ylmethyl ester] to Cn1c(=O)n(Cc2ccccc2)c(=O)c2cc(C(=O)OCc3cccnc3)sc21 [Example 163, 3-Benzyl-1-methyl-2,4-dioxo-1,2,3,4-tetrahydro-thieno[2,3-d]pyrimidine-6-carboxylic acid pyridin-3-ylmethyl ester], the IC50 falls from over 100 µM to 0.016 µM. The second is the more potent here.

Going from CCN(CC)CC(C)OC(=O)c1cc2c(=O)n(Cc3ccccc3)c(=O)n(C)c2s1 (stereo not shown) [Example 152, 3-Benzyl-1-methyl-2,4-dioxo-1,2,3,4-tetrahydro-thieno[2,3-d]pyrimidine-6-carboxylic acid 2-diethylamino-1-methyl-ethyl ester] to CC(CN(C)C)OC(=O)c1cc2c(=O)n(Cc3ccccc3)c(=O)n(C)c2s1 (stereo not shown) [Example 165, 3-Benzyl-1-methyl-2,4-dioxo-1,2,3,4-tetrahydro-thieno[2,3-d]pyrimidine-6-carboxylic acid 2-dimethylamino-1-methyl-ethyl ester], the IC50 rises from 9.9 µM to 20 µM (2-fold).

Compared with Cc1ccc(CCOC(=O)c2cc3c(=O)n(Cc4ccccc4)c(=O)n(C)c3s2)cc1 [Example 155, 3-Benzyl-1-methyl-2,4-dioxo-1,2,3,4-tetrahydro-thieno[2,3-d]pyrimidine-6-carboxylic acid 2-p-tolyl-ethyl ester], COc1ccc(COC(=O)c2cc3c(=O)n(Cc4ccccc4)c(=O)n(C)c3s2)cc1 [Example 166, 3-Benzyl-1-methyl-2,4-dioxo-1,2,3,4-tetrahydro-thieno[2,3-d]pyrimidine-6-carboxylic acid 4-methoxy-benzyl ester] is 67-fold lower in IC50: 62 µM for the first, 0.92 µM for the second.

Going from Cn1c(=O)n(Cc2ccccc2)c(=O)c2cc(C(=O)OCc3ccc(C(F)(F)F)cc3)sc21 [Example 156, 3-Benzyl-1-methyl-2,4-dioxo-1,2,3,4-tetrahydro-thieno[2,3-d]pyrimidine-6-carboxylic acid 4-trifluoromethyl-benzyl ester] to Cn1c(=O)n(Cc2ccccc2)c(=O)c2cc(C(=O)OCCCc3cccnc3)sc21 [Example 164, 3-Benzyl-1-methyl-2,4-dioxo-1,2,3,4-tetrahydro-thieno[2,3-d]pyrimidine-6-carboxylic acid 3-pyridin-3-yl-propyl ester], the IC50 rises from 0.18 µM to 69 µM (380-fold). The first is the more potent here.

Going from Cn1c(=O)n(Cc2ccccc2)c(=O)c2cc(C(=O)OCC3CCC3)sc21 [Example 157, 3-Benzyl-1-methyl-2,4-dioxo-1,2,3,4-tetrahydro-thieno[2,3-d]pyrimidine-6-carboxylic acid cyclobutylmethyl ester] to Cn1c(=O)n(Cc2ccccc2)c(=O)c2cc(C(=O)OC3CCOCC3)sc21 [Example 167, 3-Benzyl-1-methyl-2,4-dioxo-1,2,3,4-tetrahydro-thieno[2,3-d]pyrimidine-6-carboxylic acid tetrahydro-pyran-4-yl ester], the IC50 falls from over 100 µM to 26 µM.

Going from CN1CCC(OC(=O)c2cc3c(=O)n(Cc4ccccc4)c(=O)n(C)c3s2)CC1 [Example 161, 3-Benzyl-1-methyl-2,4-dioxo-1,2,3,4-tetrahydro-thieno[2,3-d]pyrimidine-6-carboxylic acid 1-methyl-piperidin-4-yl ester] to Cn1c(=O)n(Cc2ccccc2)c(=O)c2cc(C(=O)OCCN3CCCC3)sc21 [Example 175, 3-Benzyl-1-methyl-2,4-dioxo-1,2,3,4-tetrahydro-thieno[2,3-d]pyrimidine-6-carboxylic acid 2-pyrrolidin-1-yl-ethyl ester], the IC50 rises from 11 µM to over 100 µM.

First: Cn1c(=O)n(Cc2ccccc2)c(=O)c2cc(C(=O)OCC(Cl)(Cl)Cl)sc21 [Example 171, 3-Benzyl-1-methyl-2,4-dioxo-1,2,3,4-tetrahydro-thieno[2,3-d]pyrimidine-6-carboxylic acid 2,2,2-trichloro-ethyl ester]
Second: Cn1c(=O)n(Cc2ccccc2)c(=O)c2cc(C(=O)OCCN3CCOCC3)sc21 [Example 174, 3-Benzyl-1-methyl-2,4-dioxo-1,2,3,4-tetrahydro-thieno[2,3-d]pyrimidine-6-carboxylic acid 2-morpholin-4-yl-ethyl ester]
The IC50 of the first is lower: 14 µM for the first, over 100 µM for the second.
